“Also recorded” adds a separate entry of the source.
Legend:
[1] = test system: MK801-treated mice; assay: Open field test of spontaneous locomotor activity (MK801-induced hyper-locomotion); assay type: in vivo; settings: for effect on MK801-induced hyperactivity (total distance traveled in open field test): oral gavage, cohort 1, FIG. 2
Method: (§1) C57BL/6J male mice were group housed (3-5 mice per cage) with food and water available ad libitum in polysulfone ventilated cages (Alternative Design, AR, USA) in the animal rooms. The colony was maintained on a 12/12-h light/dark cycle at the temperature of 22±2° C. and all behavioral studies will be performed during the dark cycle. All animals used in this study were adult mice (at least 2.5 months of age).
The mice were randomly assigned into six groups listed below:
Group 3: Sodium benzoate (1000 mg/kg)+MK801
Group 4: Sodium benzoate (200 mg/kg)+MK801 […]
Group 6: Sodium benzoate (200 mg/kg)+Tannic Acid (60 mg/kg)+MK801.
Each mouse in Groups 2-6 received an acute administration of MK801 dissolved in normal saline (0.1 mg/kg, i.p.) 20 minutes prior to the behavioral tests. […]
(§2) All mice of cohort 1 in this study were assessed with open field test as described herein. The mice of cohorts 2 and 3 in this study were assessed with prepulse inhibition test as described herein.
The open field test is a common measurement of novelty induced exploratory behavior and general activity in both mice and rats. In this study, mice were placed in a Plexiglas cage (37.5 cm×21.5 cm×18 cm) under 50-65 lux light intensity. Their spontaneous locomotor activities were measured for 60 minutes using the EthoVision video tracking system (Noldus Information Technology, the Netherlands). The travel distance of each mouse was measured as an index of locomotion activity. It generates hyperactivity which is frequently applied as animal models including, but not limited to, schizophrenia, bipolar disorder, attention-deficit hyperactivity disorder, obsessive compulsive disorder, Tourette's syndrome, autism spectrum disorders, Fragile X syndrome, Parkinson's disease, dementia with Lewy bodies, and senile dementia (see Rubia et al., 2010; Sheppard and Bradshaw, 1999; Bent et al., 2014; Powell and Miyakawa, 2006; Nestler and Hyman, 2010; Bubeni{acute over ( )}kova{acute over ( )}-Vales{hacek over ( )}ova et al., 2008; Gobira et al., 2013; Lai et al., 2014; Maio et al., 2014; Sontag et al., 2010; Ding et al., 2014; Walitza et al., 2007; Finestone et al., 1982; Golimstok et al., 2011).

[2] = test system: MK801-treated mice; assay: Prepulse inhibition test of sensorimotor gating function (MK801-disrupted PPI); assay type: in vivo
Method: as §1
The mice were randomly assigned into ten groups listed below:
Group 9: Sodium benzoate (1000 mg/kg)+MK801
Group 10: Sodium benzoate (200 mg/kg)+MK801
Group 11: Sodium benzoate (600 mg/kg)+MK801
Group 12: Sodium benzoate (200 mg/kg)+Tannic Acid (30 mg/kg)+MK801
Group 13: Sodium benzoate (200 mg/kg)+Tannic Acid (60 mg/kg)+MK801
Group 14: Sodium benzoate (600 mg/kg)+Tannic Acid (10 mg/kg)+MK801
Group 15: Sodium benzoate (600 mg/kg)+Tannic Acid (30 mg/kg)+MK801
Group 16: Sodium benzoate (600 mg/kg)+Tannic Acid (60 mg/kg)+MK801.
Each mouse in Groups 8-16 received an acute administration of MK801 dissolved in normal saline (0.1 mg/kg, i.p.) 20 minutes prior to the behavioral tests. Each mouse in Groups 9-16 received an acute administration of sodium benzoate or sodium benzoate in combination with tannic acid (dissolved in PBS, 10, 30 or 60 mg/kg) via oral gavage 20 minutes prior to the MK801 administration.
The mice were randomly assigned into five groups listed below:
Group 19: Tannic acid_10 mg/kg+MK801
Group 20: Tannic acid_30 mg/kg+MK801
Each mouse in Groups 18-21 received an acute administration of MK-801 (a NMDA receptor antagonist, dissolved in normal saline (0.1 mg/kg, i.p.) 20 minutes prior to behavioral tests. On the other hand, each mouse in Groups 19-21 received an acute administration of tannic acid (dissolved in 30% PEG400 in PBS, 10, 30 or 100 mg/kg) via oral gavage 20 minutes prior to the MK801 administration.
as §2
Prepulse inhibition was used as an index of sensorimotor gating function using SR-LAB startle apparatus (San Diego Instruments, San Diego, Calif., USA). The startle stimulus was a 40 ms, 120 dB white noise burst. In the pre-pulse (pp)+pulse trials, a 20 ms white noise pre-pulse stimuli of 82 dB (pp10) or 90 dB (pp18) was presented 100 ms before a 40 ms 120 dB pulse. The trials were presented pseudo-randomly and separated by inter-trial interval of 15 s on average (varying between 10 to 20 s) under 72 dB background noise. The percentage of pre-pulse inhibition was evaluated by the following formula: % PPI=100×[(PA score)−(pp-P score)]/(PA score), where the PA score was the average of the PA value in the middle blocks.

[3] = MK801 0.1 mg/kg i.p., 20 minutes prior to test, model-inducing agent

O=C([O-])c1ccccc1.[Na+] [sodium benzoate]
effect on MK801-induced hyperactivity (total distance traveled in open field test) ([1]; sodium benzoate 200 mg/kg alone, MK801 0.1 mg/kg i.p.): less effective
effect on MK801-induced hyperactivity (total distance traveled in open field test) ([1]; sodium benzoate 1000 mg/kg alone, MK801 0.1 mg/kg i.p.): rescued/protected mice from MK801 induced hyper-locomotion more than 200 mg/kg; also recorded: completely prevented
effect on rescuing MK801-disrupted PPI ([2]; sodium benzoate alone 200 mg/kg or 600 mg/kg, oral gavage, cohort 2, prepulse 82 dB and 90 dB): did not show much effects
effect on MK801-impaired prepulse inhibition (percentage of pre-pulse inhibition) ([2]; sodium benzoate alone at 200, 600 or 1000 mg/kg, FIG. 3 legend): can be improved

O=C(OC[C@H]1O[C@@H](OC(=O)c2cc(O)c(O)c(OC(=O)c3cc(O)c(O)c(O)c3)c2)[C@H](OC(=O)c2cc(O)c(O)c(OC(=O)c3cc(O)c(O)c(O)c3)c2)[C@@H](OC(=O)c2cc(O)c(O)c(OC(=O)c3cc(O)c(O)c(O)c3)c2)[C@@H]1OC(=O)c1cc(O)c(O)c(OC(=O)c2cc(O)c(O)c(O)c2)c1)c1cc(O)c(O)c(OC(=O)c2cc(O)c(O)c(O)c2)c1 [tannic acid]
effect on rescuing MK801-induced hyper-locomotion ([1]; tannic acid alone, dose not given): little or no effect
effect on MK801-disrupted PPI ([2]; tannic acid alone 10, 30, 100 mg/kg, oral gavage, MK801 0.1 mg/kg i.p., cohort 3, prepulse 82 dB and 90 dB, FIG. 4): little or no effects; also recorded: little or no improvement; also recorded: little or no impact

C[C@]12N[C@H](Cc3ccccc31)c1ccccc12 [MK801]
effect on locomotion (total distance traveled in open field test) [1, 3]: induced hyperactivity
effect on prepulse inhibition [2, 3]: impairs prepulse inhibition

— patent publication US10617660B2, “Compositions containing benzoate compound and tannic acid for treating central nervous system disorders” (SyneuRx International (Taiwan) Corp., priority 2016, dated 2020)
